Measurements reported in patent US6403554B2, “Polyunsaturated fatty acid derivatives and their use” (Ardenia Investments Ltd., priority 1998, dated 2002).
“Also recorded” adds a separate entry of the source.

Assays:
Assay type in all cases: in vivo, C57B1/6 mice
[1] = tested on: antibody-forming cells (AFC) in the spleen; experiment: Influence of AFP/compound complexes and their components on humoral immune response (AFC in spleen); conditions: for Immunogenic activity: compound alone; for Dose at which immunostimulating effect in vivo is displayed: compound in a complex with AFP
Description: 0.15 ml of AFP/Compound 3 complex was administered intravenously to 6 mice males of C57B1/6 line (weight 18-22 g) in the dose of […] of AFP and 45.5 μg of compound 3 per capita. Simultaneously suspension of 5·10^7 sheep erythrocytes was injected intraperitoneally (0.2 ml per capita). In the group with compound 3 mice were injected intravenously by one in the dose of 45.5 μg. Animals of group with AFP received 9 μg of AFP. Mice of control group were injected intravenously with equal volume of saline. Complex AFP/Compound 3 effect on humoral immune response was analyzed by counting the quantity of AFC in the spleen according to Cunningham (per 10^6 spleen cells and per spleen).
0.15 ml of AFP/Compound 2a complex (1:100) was administered intravenously to 6 mice males of C57B1/6 line (weight 18-22 g) in the dose of 9 μg of AFP and 45.5 μg of compound 2a per capita. Simultaneously, a suspension of 5·10^7 sheep erythrocytes was injected intraperitoneally (0.2 ml per capita). In the group with compound 2a mice were injected intravenously by one in the dose of 45.5 μg. Animals of group with AFP received 9 μg of AFP. Mice in the control group were injected intravenously with an equal volume of saline. The effect of the AFP/Compound 2a complex on humoral immune response was analyzed by counting the quantity of AFC in the spleen according to Cunningham (per 10^6 spleen cells and per spleen).
(§1) 0.15 ml of AFP/Compound 10 complex (1:200) was administered intravenously to 6 male mice of C57B1/6 line (weight 18-22 g) in the dose of 9 μg of AFP and 91 μg of compound 10 per capita. Simultaneously, a suspension of 5·10^7 sheep erythrocytes was injected intraperitoneally (0.2 ml per capita). In the group receiving compound 10 mice were injected intravenously by one in the dose of 91 μg. Animals in the group with AFP received 9 μg of AFP. Micein the control group were injected intravenously with an equal volume of saline. The effect of the AFP/Compound 10 complex on humoral immune response was analyzed by counting the quantity of AFC in the spleen according to Cunningham (per 10^6 spleen cells and per spleen).
as §1, with “AFP/Compound 14” for “AFP/Compound 10”, “compound 14” for “compound 10”, “group with” for “group receiving”, “Animals of” for “Animals in the”, “AFP. Mice in” for “AFP. Micein”
0.15 ml of AFP/Compound 7 complex (1:200) was administered intravenously to 6 male mice of C57B1/6 line (weight 18-22 g) in the dose of 9 μg of AFP and 91 μg of compound 7 per capita. Simultaneously, a suspension of 5·10^7 sheep erythrocytes was injected intraperitoneally (0.2 ml per capita). In the group with compound 7 mice were injected intravenously by one in the dose of 91 μg. Animals of group with AFP received 9 μg of AFP. Mice of control group were injected intravenously with equal volume of saline. AFP/Compound 7 complex effect on humoral immune response was analyzed by counting the quantity of AFC in the spleen according to Cunningham (per 10^6 spleen cells and per spleen).
0.15 ml of AFP/Compound 15 complex (1:200) was administered intravenously to 6 mice males of C57B1/6 line (weight 18-22 g) in the dose of 9 μg of AFP and 91 μg of compound 15 per capita. Simultaneously, a suspension of 5·10^7 sheep erythrocytes was injected intraperitoneally (0.2 ml per capita). In the group receiving compound 15, the mice were injected intravenously by one in the dose of 91 μg. Animals in the AFP-group received 9 μg of AFP. […]

[2] = tested on: antibody-forming cells (AFC) in the spleen; experiment: Humoral immune response: counting antibody-forming cells (AFC) in the spleen according to Cunningham, mice immunised with sheep erythrocytes; conditions: for Amount of antibody-forming cells per 10^6 spleen cells, M ± SEM (relative amount of AFC) / Amount of antibody-forming cells per spleen, M ± SEM (total AFC amount): 5-th day after injection, female mice; for Effect, % on AFC per 10^6 spleen cells / Effect, % on AFC per spleen: versus animals immunised only with sheep erythrocytes
Description: (§2) 0.15 ml of compound 10 was administered intravenously to 6 mice females of CS7B1/6 line (weight 18-22 g) in doses of 45.5, 91 and 136.5 μg of compound 10 per capita for each testing group according to the dose. Simultaneously, a suspension of 5·10^7 sheep erythrocytes was injected intraperitoneally (0.2 ml per capita). Mice in the control group were injected intravenously with equal volume of saline. The effects of compound 10 on humoral immune response were analyzed both by counting the quantity of AFC in the spleen according to Cunningham (per 10^6 spleen cells and per spleen) and estimating the titers of hemagglutining antibodies in serum of the animals (Cunningham A. J., Nature, 1965, Vol.207, No 5001. P.1106-1107), while the titers of hemagglutinating antibodies were evaluated according to litterature (Evans J. et al., Cell, 1974; Vol 3., p.153-158, Feizi T., Menger E., Transfusion, 1970, Vol. 10, p.33-35,).
(§3) 0.15 ml of compound 11 was administered intravenously to 6 female mice of the C57B1/6 line (weight 18-22 g) in doses of 45.5, 91 and 136.5 μg of compound 11 per capita for each testing group according to the dose. Simultaneously, a suspension of 5·10^7 sheep erytrocytes was injected intraperitoneally (0.2 ml per capita). Mice in the control group were injected intravenously with an equal volume of saline. The effects of compound 11 on humoral immune response was analysed both by counting the quantity of AFC in the spleen according to Cunningham (per 10^6 spleen cells and per spleen) and estimating the titers of hemagglutining antibodies in serum of the animals.
as §3, with “12” for “11”, “erythrocytes” for “erytrocytes”, “analyzed” for “analysed”
as §3, with “compound 8” for “compound 11”, “sheep erythrocytes” for “sheep erytrocytes”, “Mice of” for “Mice in”, “response were analyzed” for “response was analysed”
as §3, with “compound 3” for “compound 11”, “Mice of” for “Mice in”, “with” for “with an”, “response were” for “response was”
(§4) 0.15 ml of compound 4 was administered intravenously to 6 female mice of the C57B1/6 line (weight 18-22 g) in a doses of 45.5, 91 and 136.5 μg of compound 4 per capita for each testing group according to the dose. Simultaneously, a suspension of 5·10^7 sheep erythrocytes was injected intraperitoneally (0.2 ml per capita). […]

[3] = tested on: hemagglutinating antibodies in serum; experiment: Humoral immune response: titers of hemagglutinating antibodies in serum; conditions: for Amount of hemagglutinins: serum, female mice; for Effect, % on hemagglutinins: versus control
Description: as §2, §3
as §3, with “12” for “11”, “erythrocytes” for “erytrocytes”, “analyzed” for “analysed”
as §3, with “compound 8” for “compound 11”, “sheep erythrocytes” for “sheep erytrocytes”, “Mice of” for “Mice in”, “response were analyzed” for “response was analysed”
as §3, with “compound 3” for “compound 11”, “Mice of” for “Mice in”, “with” for “with an”, “response were” for “response was”
as §4

Row | SMILES | Immunogenic activity ([1]; 91 μg/mouse) | Dose at which immunostimulating effect in vivo is displayed [1] | Amount of antibody-forming cells per 10^6 spleen cells, M ± SEM (relative amount of AFC) ([2]; 45.5 μg/mouse i.v.) | Amount of antibody-forming cells per spleen, M ± SEM (total AFC amount) ([2]; 45.5 μg/mouse i.v.) | Effect, % on AFC per 10^6 spleen cells ([2]; 45.5 μg/mouse i.v.) | Effect, % on AFC per spleen ([2]; 45.5 μg/mouse i.v.) | Amount of antibody-forming cells per 10^6 spleen cells, M ± SEM (relative amount of AFC) ([2]; 91 μg/mouse i.v.) | Amount of antibody-forming cells per spleen, M ± SEM (total AFC amount) ([2]; 91 μg/mouse i.v.) | Amount of antibody-forming cells per 10^6 spleen cells, M ± SEM (relative amount of AFC) ([2]; 136.5 μg/mouse i.v.) | Amount of antibody-forming cells per spleen, M ± SEM (total AFC amount) ([2]; 136.5 μg/mouse i.v.) | Amount of hemagglutinins ([3]; 45.5 μg/mouse i.v.) | Amount of hemagglutinins ([3]; 91 μg/mouse i.v.) | Effect, % on hemagglutinins ([3]; 91 μg/mouse i.v.) | Amount of hemagglutinins ([3]; 136.5 μg/mouse i.v.) | also measured
1 | CC/C=C\C/C=C\C/C=C\C/C=C\C/C=C\CCCC(=O)N[C@H](C(=O)O)[C@@H](C)OP(=O)(O)O [Compound 15, N-eicosapentaenoyl-o-phospho-L-threonine] | no immunogenic activity; also recorded: do not inhibit immunogenic activity | 91 μg/mouse | – | – | – | – | – | – | – | – | – | – | – | – | –
2 | CCCCC/C=C\C/C=C\C/C=C\C/C=C\CCCC(=O)N[C@H](C(=O)O)[C@@H](C)OP(=O)(O)O [Compound 7, N-arachidonoyl-o-phospho-L-threonine] | no immunogenic activity; also recorded: do not inhibit immunogenic activity | 91 μg/mouse | – | – | – | – | – | – | – | – | – | – | – | – | –
3 | CC/C=C\C/C=C\C/C=C\CCCCCCCC(=O)N[C@@H](Cc1ccc(OP(=O)(O)O)cc1)C(=O)O [Compound 20, N-linolenoyl-o-phospho-L-tyrosine] | – | – | 512.8±46.2 | 46.4±4.8 × 10^3 | −9.8 p > 0.05% | −7.4 p > 0.05% | 634.5±51.7 | 55.7±5.6 × 10^3 | 845.1±43.1 | 75.8±7.7 × 10^3 | 7.4 ± 0.2 Log2 T | 7.5 ± 0.3 Log2 T | +1.4 p > 0.05% | 7.6 ± 0.4 Log2 T | Effect, % on AFC per 10^6 spleen cells ([2]; 91 μg/mouse i.v.): +11.6 p > 0.05%; Effect, % on AFC per spleen ([2]; 91 μg/mouse i.v.): +11.2 p > 0.05%; immunostimulating action ([2]; dose of 136.5 μg/mouse): marked immunostimulating action; Immunogenic activity ([2]; doses of 45.5 and 91 μg/mouse): no immunogenic activity; Effect, % on hemagglutinins ([3]; 136.5 μg/mouse i.v.): +2.7 p > 0.05%
4 | CC1=C(/C=C/C(C)=C/C=C/C(C)=C/C(=O)N[C@@H](Cc2ccc(OP(=O)(O)O)cc2)C(=O)O)C(C)(C)CCC1 (stereo in doubt) [Compound 4, N-(all-trans-retinoyl)-o-phospho-L-tyrosine] | – | – | 405.0±47.9 | 55.0±6.7 × 10^3 | −0.3 p >0.05% | −8.9 p > 0.05% | 692.9±44.8 | 87.6±4.3 × 10^3 | 1354.3±99.9 | 138.9±10.0 × 10^3 | 6.0 ± 0.3 Log2 T | 6.5 ± 0.4 Log2 T | +4.8 p > 0.05% | 7.5±0.2 Log2 T | Dose at which immunostimulating effect in vivo is displayed (micelle form) ([2]; compound alone): 91 μg/mouse; Immunogenic activity ([2]; dose of 45.5 μg/mouse): no immunogenic activity; immunostimulating action ([2]; doses of 91 and 136.5 μg/mouse): high immunostimulating action; Effect, % on hemagglutinins ([3]; 45.5 μg/mouse i.v.): −3.2 p > 0.05%
5 | CC1=C(/C=C/C(C)=C/C=C/C(C)=C/C(=O)NCCOP(=O)(O)O)C(C)(C)CCC1 [Compound 1, N-(all-trans-retinoyl)-o-phospho-2-aminoethanol] | – | 45.5 μg/mouse | – | – | – | – | – | – | – | – | – | – | – | – | Immunogenic activity ([1]; 45.5 μg/mouse): no immunogenic activity; also recorded: do not inhibit immunogenic activity
